In this experiment the test system is SK-MEL-2. In words: Antitumor activity against human SK-MEL-2 cells xenografted in athymic nu/nu Harlan mouse assessed as tumor growth inhibition at 8 mg/kg, ip administered Q4D for 3 days relative to control. The format is functional, organism-based. More on the design: dose 8 mg/kg. A general note: In xenograft studies the graft and the host belong to different species.

Molecules are shown by their SMILES. Activity calls are given as the source filed them. No cut-off for these calls is given here.

`COc1cccc2c1C(=O)c1c(O)c3c(c(O)c1C2=O)C[C@@](O)(C(=O)CO)C[C@@H]3O[C@H]1C[C@H](N)[C@H](O)[C@H](C)O1`: the TGI result was “Active”.
